Each block holds one sequence with its values, some of them ahead of it.
Key:
Assay in all cases: Phosphomimetic ProP-PD selection with NGS
DLG1 PDZ2 = target: T1, DLG1 PDZ2 (Homo sapiens, UniProt Q12959); type: binding; conditions: mean of selections 1-3, bait DLG1 PDZ2
T1 construct: human DLG1 PDZ2 aa 311–407 in a modified pRSET vector 40; made in house; host or cells: E. coli BL21 Gold (DE3)
Experimental: (§1) Phage selections were carried out for four rounds following a protocol by Huang and Sidhu (Huang & Sidhu, 2011) with minor modifications. Non‐specific binding phage was removed by pre‐selections against immobilized GST throughout the selection. The selections against the (pre‐)phosphorylated wild‐type library were performed in 50 mM HEPES (pH 7.4) and 150 mM NaCl (HBS) following the same procedure after pre‐phosphorylation of the library.
(§2) • Immobilize proteins (15 μg in 100 μl PBS) in a 96‐well MaxiSorp microtiter plate (NUNC) overnight at 4°C. • Start a 2YT culture of E. coli Omnimax supplemented with 100 μg/ml tetracycline to retain the F pilus epitope. • Block the wells with 200 μl 0.5% BSA in PBS for 2 h at 4°C. • Precipitate naïve phage library (10^11 cfu per selection) or amplified phage pool from the previous round of selection by adding one‐fifth the volume of PEG/NaCl. • Incubate on ice for 10 min, and pellet precipitated phage by centrifugation at 5,300 g for 15 min. Resuspend the phage pellet in 100 μl PBS per selection. • Add 100 μl of phage solution to the GST‐coated pre‐selection wells and incubate for 1 h. • Transfer the phage solution to the immobilized target proteins and allow it to bind for 2 h at 8°C. • Wash the plate four times with 200 μl cold wash buffer (PBS, 0.05% Tween‐20). • Elute bound phage by incubation with 100 μl log phase (0.6–0.8 OD600) E. coli Omnimax for 30 min at 37°C with shaking (200 RPM). • Add 10^12 cfu/ml M13K07 helper phage for hyperinfection of the bacteria and incubate as above for 45 min. • Transfer the bacterial culture to 10 ml 2YT supplemented with 50 μg/ml carbenicillin, 25 μg/ml kanamycin, and 300 μM IPTG and incubate overnight at 37°C while shaking. • Perform phage pool ELISA to monitor the progress of the selection as described previously (Huang & Sidhu, 2011).
(§3) The naïve library and the enriched phage pools of the third day of selection were amplified and barcoded by PCR and analyzed by NGS as described elsewhere (McLaughlin & Sidhu, 2013; Ivarsson et al, 2014). The reads were demultiplexed using the barcode sequences and filtered by discarding sequences with a Phred quality score under 30. Sequences were mapped to the original library using Bowtie (Langmead et al, 2009) with two mismatches between reads and library sequence. Nucleotide mutations leading to amino acid substitutions were subsequently removed. Cutoff values of NGS counts were assigned for each pool. PWMs were generated based on the remaining peptides (aligned on the C‐termini) using WebLogo (Crooks et al, 2004).
(§4) However, there was no significant correlation of the actual read counts (selection “strength”) and the initial representation in the library, reflecting the strong selection during phage display (wt+mimetic: P‐value: 0.49, ρ = −0.08, mimetic only: P‐value: 0.069, ρ = −0.2, wt only: P‐value: 0.12, ρ = 0.17). Consequently, the amount of reads for each binder after phage display is not a function of the amount of input reads in the naïve library and no modeling based on the input library frequencies to score the interactions is necessary. To allow for comparison between replicate selections, we used the fraction of NGS reads within a certain set, instead of the absolute number of NGS reads, as the absolute numbers differ between different NGS batches.

Scribble PDZ1 = target: T2, Scribble PDZ1 (Homo sapiens, UniProt Q14160); type: binding; conditions: bait Scribble PDZ1; mean of selections 1-3
T2 construct: human Scribble PDZ1 aa 719–829 in; made in house; host or cells: E. coli BL21 Gold (DE3)
T2 sequence (Q14160 719-829): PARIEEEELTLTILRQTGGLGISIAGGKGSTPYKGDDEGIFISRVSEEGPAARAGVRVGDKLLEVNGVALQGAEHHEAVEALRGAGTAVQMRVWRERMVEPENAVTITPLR
Experimental: as §1, §2, §3, §4

Scribble PDZ3 = type: binding, human; conditions: mean over selections 1-3; bait Scribble PDZ3
Experimental: as §1, §2, §3, §4

DLG1 PDZ1 = type: binding, human; conditions: mean of selections 1-3, bait DLG1 PDZ1; for Mean fraction #NGS counts mimetic peptide / total count selection: phosphomimetic peptide; for Mean fraction #NGS counts wt peptide / total counts selection: wild type peptide
Experimental: as §1, §2, §3, §4

Scribble PDZ2 = type: binding, human; conditions: bait Scribble PDZ2
Experimental: as §1, §2, §3, §4

[1] = mean of selections 1 and 2 (selection 3 empty)

T1 sequence (Q12959 311-407): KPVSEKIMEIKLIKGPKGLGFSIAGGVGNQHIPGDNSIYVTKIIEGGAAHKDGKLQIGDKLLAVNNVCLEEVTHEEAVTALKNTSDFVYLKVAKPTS

Mean fraction #NGS counts mimetic peptide / total count selection (DLG1 PDZ2): 0
Mean fraction #NGS counts mimetic peptide / total count selection (Scribble PDZ1): 1.46e-5
Sequence: ARVSKEEPL
Mean fraction #NGS counts mimetic peptide / total count selection (Scribble PDZ3): 0

Mean fraction #NGS counts wt peptide / total counts selection (DLG1 PDZ2): 0.002959
Mean fraction #NGS counts wt peptide / total counts selection (Scribble PDZ1): 0.07558
Sequence: ARVSKETPL
Mean fraction #NGS counts wt peptide / total counts selection (Scribble PDZ3): 0.1287

Sequence: ASEPGGTVV
Mean fraction #NGS counts mimetic peptide / total count selection (DLG1 PDZ1): 0

Sequence: ASSPGGTVV
Mean fraction #NGS counts wt peptide / total counts selection (DLG1 PDZ1): 2.813e-5

Mean fraction #NGS counts mimetic peptide / total count selection (Scribble PDZ1): 0.0002246
Sequence: EARLWETSI
Mean fraction #NGS counts mimetic peptide / total count selection (DLG1 PDZ1): 3.0718e-6
Mean fraction #NGS counts mimetic peptide / total count selection (Scribble PDZ3): 0.01196

Mean fraction #NGS counts mimetic peptide / total count selection (Scribble PDZ1): 0.0003719
Sequence: EEREVTTYL
Mean fraction #NGS counts mimetic peptide / total count selection (DLG1 PDZ1): 3.309e-5
Mean fraction #NGS counts mimetic peptide / total count selection (Scribble PDZ3): 0.000214

Mean fraction #NGS counts mimetic peptide / total count selection (DLG1 PDZ2; phosphomimetic peptide): 0.0002179
Mean fraction #NGS counts mimetic peptide / total count selection (Scribble PDZ1): 1.46e-5
Sequence: EGSYLVTSV

Mean fraction #NGS counts mimetic peptide / total count selection (DLG1 PDZ2): 0
Sequence: ERLRVEEDV
Mean fraction #NGS counts mimetic peptide / total count selection (DLG1 PDZ1): 0
Mean fraction #NGS counts mimetic peptide / total count selection (Scribble PDZ3): 0

Mean fraction #NGS counts wt peptide / total counts selection (DLG1 PDZ2): 0.00089
Sequence: ERLRVETDV
Mean fraction #NGS counts wt peptide / total counts selection (DLG1 PDZ1): 0.0001761
Mean fraction #NGS counts wt peptide / total counts selection (Scribble PDZ3): 0.0002834

Sequence: ESGSQHTNV
Mean fraction #NGS counts mimetic peptide / total count selection (DLG1 PDZ1): 0

Mean fraction #NGS counts wt peptide / total counts selection (Scribble PDZ1): 2.8202e-5
Sequence: ESREVTTYL
Mean fraction #NGS counts wt peptide / total counts selection (DLG1 PDZ1): 0
Mean fraction #NGS counts wt peptide / total counts selection (Scribble PDZ3): 5.004e-5

Mean fraction #NGS counts mimetic peptide / total count selection (Scribble PDZ1): 0.0001134
Sequence: GELALLTKL
Mean fraction #NGS counts mimetic peptide / total count selection (DLG1 PDZ1): 1.514e-5

Mean fraction #NGS counts wt peptide / total counts selection (Scribble PDZ1): 0
Sequence: GSLALLTKL
Mean fraction #NGS counts wt peptide / total counts selection (DLG1 PDZ1): 0

Sequence: KLESIESDV
Mean fraction #NGS counts mimetic peptide / total count selection (DLG1 PDZ1): 0

Mean fraction #NGS counts wt peptide / total counts selection (DLG1 PDZ2): 0.003213
Sequence: KLSSIESDV
Mean fraction #NGS counts wt peptide / total counts selection (DLG1 PDZ1): 2.936e-5
Mean fraction #NGS counts wt peptide / total counts selection (Scribble PDZ3): 0.0003618

Mean fraction #NGS counts mimetic peptide / total count selection (DLG1 PDZ2; phosphomimetic peptide): 0.001492
Sequence: KPERISTVV
Mean fraction #NGS counts mimetic peptide / total count selection (DLG1 PDZ1): 0.0005714

Mean fraction #NGS counts wt peptide / total counts selection (DLG1 PDZ2; wild type peptide): 2.5129e-5
Sequence: KPSRISTVV
Mean fraction #NGS counts wt peptide / total counts selection (DLG1 PDZ1): 0

Sequence: KYDKELEPV
Mean fraction #NGS counts mimetic peptide / total count selection (DLG1 PDZ1): 0.003147

Sequence: KYDKELTPV
Mean fraction #NGS counts wt peptide / total counts selection (DLG1 PDZ1): 1.185e-6

Mean fraction #NGS counts mimetic peptide / total count selection (DLG1 PDZ2): 0.0002982
Sequence: MRLQSETEV
Mean fraction #NGS counts mimetic peptide / total count selection (DLG1 PDZ1): 3.405e-5

Mean fraction #NGS counts wt peptide / total counts selection (DLG1 PDZ2): 5.408e-5
Sequence: MRLQSETSV
Mean fraction #NGS counts wt peptide / total counts selection (DLG1 PDZ1): 1.185e-6

Sequence: QEELKLSNL
Mean fraction #NGS counts mimetic peptide / total count selection (Scribble PDZ2; [1]): 0.0005697

Sequence: QSELKLSNL
Mean fraction #NGS counts wt peptide / total counts selection (Scribble PDZ2; [1]): 0.0009495

Sequence: RGLESATEL
Mean fraction #NGS counts mimetic peptide / total count selection (Scribble PDZ2; mean over selections): 0.001519

Sequence: RGLESATSL
Mean fraction #NGS counts wt peptide / total counts selection (Scribble PDZ2; mean over selections): 0

Mean fraction #NGS counts mimetic peptide / total count selection (DLG1 PDZ2; phosphomimetic peptide): 0.000103
Sequence: RIESLESEV
Mean fraction #NGS counts mimetic peptide / total count selection (DLG1 PDZ1): 1.703e-5

Mean fraction #NGS counts wt peptide / total counts selection (DLG1 PDZ2; wild type peptide): 0.00571
Sequence: RISSLESEV
Mean fraction #NGS counts wt peptide / total counts selection (DLG1 PDZ1): 0.0001168

Mean fraction #NGS counts mimetic peptide / total count selection (DLG1 PDZ2): 1.723e-5
Sequence: RREEYSTTV
Mean fraction #NGS counts mimetic peptide / total count selection (DLG1 PDZ1): 1.94e-5

Mean fraction #NGS counts wt peptide / total counts selection (DLG1 PDZ2): 0.0006987
Sequence: RRESYSTTV
Mean fraction #NGS counts wt peptide / total counts selection (DLG1 PDZ1): 0.005493

From publication PMC6100724, “Proteome‐wide analysis of phospho‐regulated PDZ domain interactions” (Molecular Systems Biology, 2018)
